This experiment has as its target T1, Purified ERAP1(37-941)-10His (ERAP1) (Homo sapiens, UniProt Q9NZ08).
T1 construct: Purified ERAP1(37-941)-10His (ERAP1); 10His (C)
The experiment in a line: ERAP1 mediated hydrolysis of an amide substrate measured in a biochemical system (10-mer decapeptide substrate). To be noted: 10-mer substrate, 23° C. for 1 h, excitation 279 nm and emission 355 nm; read-out: IC50 vs Decapeptide WRVYEKC(Dnp)ALK-acid (where Dnp is Dinitrophenyl maleimide) (10-mer). Put shortly: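 ERAP1(37-941)-10His preincubated with compound in 25 mM Bis-tris propane, 0.05% HPMC, pH 7.75, then reacted 1 h at 23 °C with 10-mer WRVYEKC(Dnp)ALK (100 μM solution added in equal volume). Fluorescence read at ex 279/em 355 nm; IC50 from 4-parameter fit.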

T1 sequence (Q9NZ08 37-941): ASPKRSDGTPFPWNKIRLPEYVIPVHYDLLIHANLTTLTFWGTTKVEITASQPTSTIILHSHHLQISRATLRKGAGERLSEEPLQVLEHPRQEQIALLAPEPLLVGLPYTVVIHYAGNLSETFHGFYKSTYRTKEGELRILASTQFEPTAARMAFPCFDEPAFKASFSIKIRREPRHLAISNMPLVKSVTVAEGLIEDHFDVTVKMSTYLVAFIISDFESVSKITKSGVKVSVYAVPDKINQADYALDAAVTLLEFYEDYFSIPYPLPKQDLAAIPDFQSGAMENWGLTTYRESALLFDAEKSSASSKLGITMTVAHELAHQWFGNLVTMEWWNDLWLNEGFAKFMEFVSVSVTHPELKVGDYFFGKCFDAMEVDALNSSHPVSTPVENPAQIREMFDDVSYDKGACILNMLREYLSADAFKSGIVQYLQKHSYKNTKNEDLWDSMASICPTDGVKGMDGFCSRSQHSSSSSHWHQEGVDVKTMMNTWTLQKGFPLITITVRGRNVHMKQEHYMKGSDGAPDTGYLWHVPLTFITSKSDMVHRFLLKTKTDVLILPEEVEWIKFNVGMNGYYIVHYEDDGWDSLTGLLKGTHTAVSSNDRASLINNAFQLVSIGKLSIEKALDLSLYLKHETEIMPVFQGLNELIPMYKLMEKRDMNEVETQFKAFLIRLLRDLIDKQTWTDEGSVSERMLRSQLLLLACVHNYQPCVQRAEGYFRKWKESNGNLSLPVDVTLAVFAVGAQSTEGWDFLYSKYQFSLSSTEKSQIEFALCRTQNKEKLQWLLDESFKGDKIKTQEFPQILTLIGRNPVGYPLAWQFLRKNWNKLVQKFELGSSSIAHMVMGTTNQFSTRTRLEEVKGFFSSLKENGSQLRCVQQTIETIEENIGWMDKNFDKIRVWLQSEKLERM

As to `N#Cc1ccc(-c2cccnc2)c(NS(=O)(=O)c2cc(C(=O)O)ccc2C2CC2)c1` [Example 97, 3-(N-(5-cyano-2-(pyridin-3-yl)phenyl)sulfamoyl)-4-cyclopropylbenzoic acid], the IC50 (as a rule, the concentration needed to halve the response being measured) was below 500 nM.

`O=C(O)c1ccc(C2CC2)c(S(=O)(=O)Nc2cc(C(F)(F)F)ccc2-c2cccnc2)c1` [Example 98, 4-cyclopropyl-3-(N-(2-(pyridin-3-yl)-5-(trifluoromethyl)phenyl)sulfamoyl)benzoic acid]: the concentration for half-maximal inhibition (IC50) was below 500 nM.

With `O=C(O)c1ccc(C2CC2)c(S(=O)(=O)Nc2cc(C(F)(F)F)ccc2-n2cccc2)c1` [Example 99, 3-(N-(2-pyrrol-1-yl-5-(trifluoromethyl)phenyl)sulfamoyl)-4-cyclopropylbenzoic acid], the concentration for half-maximal inhibition (IC50) is below 500 nM.

As for `COc1ccc(C(=O)O)cc1S(=O)(=O)Nc1cc(C#N)ccc1-c1ccc(F)s1` [Example 100, 3-(N-(5-cyano-2-(5-fluorothiophen-2-yl)phenyl)sulfamoyl)-4-methoxybenzoic acid], the IC50 is below 500 nM.

With `CCc1ccc(C(=O)O)cc1S(=O)(=O)Nc1cc(C#N)ccc1-c1ccc(F)s1` [Example 101, 3-(N-(5-cyano-2-(5-fluorothiophen-2-yl)phenyl)sulfamoyl)-4-ethylbenzoic acid], the IC50 was below 500 nM.

As to `N#Cc1ccc(-c2ccc(F)s2)c(NS(=O)(=O)c2cc(C(=O)O)ccc2C2CC2)c1` [Example 102, 3-(N-(5-cyano-2-(5-fluorothiophen-2-yl)phenyl)sulfamoyl)-4-cyclopropylbenzoic acid], the half-inhibitory concentration (IC50) is below 500 nM.

For the compound `Cc1ccc(-c2ccc(S(C)(=O)=O)cc2NS(=O)(=O)c2cc(C(=O)O)ccc2C2CC2)s1` [Example 103, 4-cyclopropyl-3-(N-(5-(methylsulfonyl)-2-(5-methylthiophen-2-yl)phenyl)sulfamoyl)benzoic acid], the half-maximal inhibitory concentration (IC50) was below 500 nM.

Turning to `CCc1ccc(C(=O)O)cc1S(=O)(=O)Nc1cc(C(N)=O)ccc1-c1ccccn1` [Example 104, 3-(N-(5-carbamoyl-2-(pyridin-2-yl)phenyl)sulfamoyl)-4-ethylbenzoic acid], the IC50 is below 500 nM.

For the compound `COc1ccc(C(=O)O)cc1S(=O)(=O)Nc1cc(S(C)(=O)=O)ccc1-c1ccc(F)s1` [Example 105, 3-(N-(2-(5-fluorothiophen-2-yl)-5-(methylsulfonyl)phenyl)sulfamoyl)-4-methoxybenzoic acid], the IC50 was below 500 nM.

With `CCc1ccc(C(=O)O)cc1S(=O)(=O)Nc1cc(S(C)(=O)=O)ccc1-c1ccc(F)s1` [Example 106, 4-ethyl-3-(N-(2-(5-fluorothiophen-2-yl)-5-(methylsulfonyl)phenyl)sulfamoyl)benzoic acid], the 50% inhibitory concentration (IC50) was below 500 nM.

As to `CCc1ccc(C(=O)O)cc1S(=O)(=O)Nc1cc(C#N)ccc1-n1cccc1` [Example 107, 3-(N-(5-cyano-2-(pyrrol-1-yl)phenyl)sulfamoyl)-4-ethylbenzoic acid], the IC50 is below 500 nM.

As for `CCc1ccc(C(=O)O)cc1S(=O)(=O)Nc1cc(S(C)(=O)=O)ccc1-n1cccc1` [Example 108, 4-ethyl-3-(N-(5-(methylsulfonyl)-2-(pyrrol-1-yl)phenyl)sulfamoyl)benzoic acid], the IC50 is below 500 nM.

On to `N#Cc1ccc(-n2cccc2)c(NS(=O)(=O)c2cc(C(=O)O)ccc2C2CC2)c1` [Example 109, 3-(N-(5-cyano-2-(pyrrol-1-yl)phenyl)sulfamoyl)-4-cyclopropylbenzoic acid], for which the half-inhibitory concentration (IC50) is below 500 nM.

In the case of `CS(=O)(=O)c1ccc(-n2cccc2)c(NS(=O)(=O)c2cc(C(=O)O)ccc2C2CC2)c1` [Example 110, 4-cyclopropyl-3-(N-(5-(methylsulfonyl)-2-(pyrrol-1-yl)phenyl)sulfamoyl) benzoic acid], the half-maximal inhibitory concentration (IC50) was below 500 nM.

Regarding `N#Cc1ccc(-c2ccc(Cl)s2)c(NS(=O)(=O)c2cc(C(=O)O)ccc2C2CC2)c1` [Example 111, 3-(N-(2-(5-chlorothiophen-2-yl)-5-cyanophenyl)sulfamoyl)-4-cyclopropylbenzoic acid], the IC50 is below 500 nM.

For the compound `COc1ccc(C(=O)O)cc1S(=O)(=O)Nc1cc(C#N)c(F)cc1-c1cccc(F)c1` [Example 112, 3-(N-(4-cyano-3′,5-difluoro-[1,1′-biphenyl]-2-yl)sulfamoyl)-4-methoxybenzoic acid], the IC50 was below 500 nM.

Turning to `O=C(O)c1ccc(C2CC2)c(S(=O)(=O)Nc2cc(C(F)(F)F)ccc2-c2ccc(Cl)s2)c1` [Example 113, 3-(N-(2-(5-chlorothiophen-2-yl)-5-(trifluoromethyl)phenyl)sulfamoyl)-4-cyclopropylbenzoic acid], the half-maximal inhibitory concentration (IC50) was below 500 nM.

`O=C(O)c1ccc(C2CC2)c(S(=O)(=O)Nc2cc(C(F)(F)F)ccc2-c2ccc(C3CC3)s2)c1` [Example 114, 4-cyclopropyl-3-(N-(2-(5-cyclopropylthiophen-2-yl)-5-(trifluoromethyl)phenyl)sulfamoyl)benzoic acid]: the IC50 was below 500 nM.

Turning to `CS(=O)(=O)c1ccc(-c2ccc(C3CC3)s2)c(NS(=O)(=O)c2cc(C(=O)O)ccc2C2CC2)c1` [Example 115, 4-cyclopropyl-3-(N-(2-(5-cyclopropylthiophen-2-yl)-5-(methylsulfonyl)phenyl)sulfamoyl)benzoic acid], the IC50 was below 500 nM.

Take `CS(=O)(=O)c1ccc(-c2ccc(F)s2)c(NS(=O)(=O)c2cc(C(=O)O)ccc2C2CC2)c1` [Example 116, 4-cyclopropyl-3-(N-(2-(5-fluorothiophen-2-yl)-5-(methylsulfonyl)-phenyl)sulfamoyl)benzoic acid]: the half-inhibitory concentration (IC50) is below 500 nM.

On to `COc1ccc(C(=O)O)cc1S(=O)(=O)Nc1cc(C(F)(F)F)ccc1-c1ccc(F)s1` [Example 117, 3-(N-(2-(5-fluorothiophen-2-yl)-5-(trifluoromethyl)phenyl)sulfamoyl)-4-methoxybenzoic acid], for which the IC50 is below 500 nM.

Turning to `CCc1ccc(C(=O)O)cc1S(=O)(=O)Nc1cc(C#N)ccc1-c1ccc(C#N)s1` [Example 118, 3-(N-(5-cyano-2-(5-cyanothiophen-2-yl)phenyl)sulfamoyl)-4-ethylbenzoic acid], the IC50 is below 500 nM.

`COc1ccc(C(=O)O)cc1S(=O)(=O)Nc1cc(C#N)ccc1-c1ccc(C#N)s1` [Example 119, 3-(N-(5-cyano-2-(5-cyanothiophen-2-yl)phenyl)sulfamoyl)-4-methoxybenzoic acid]: the IC50 was below 500 nM.

In the case of `CCc1ccc(C(=O)O)cc1S(=O)(=O)Nc1cc(S(C)(=O)=O)ccc1-c1ccc(C#N)s1` [Example 120, 3-(N-(2-(5-cyanothiophen-2-yl)-5-(methylsulfonyl)phenyl)sulfamoyl)-4-ethylbenzoic acid], the IC50 was below 500 nM.

For `COc1ccc(C(=O)O)cc1S(=O)(=O)Nc1cc(C#N)ccc1-n1cccc1` [Example 121, 3-(N-(5-cyano-2-(pyrrol-1-yl)phenyl)sulfamoyl)-4-methoxybenzoic acid], the IC50 was below 500 nM.

Regarding `O=C(O)c1ccc(C2CC2)c(S(=O)(=O)Nc2cc(C(F)(F)F)ccc2-c2ccc(F)s2)c1` [Example 122, 4-cyclopropyl-3-(N-(2-(5-fluorothiophen-2-yl)-5-(trifluoromethyl)phenyl)sulfamoyl)benzoic acid], the IC50 was below 500 nM.

Consider `CS(=O)(=O)c1ccc(-c2ccc(Cl)s2)c(NS(=O)(=O)c2cc(C(=O)O)ccc2C2CC2)c1` [Example 123, 3-(N-(2-(5-chlorothiophen-2-yl)-5-(methylsulfonyl)phenyl)sulfamoyl)-4-cyclopropylbenzoic acid], for which the IC50 was below 500 nM.

`CS(=O)(=O)c1ccc(-c2ccc(C#N)s2)c(NS(=O)(=O)c2cc(C(=O)O)ccc2C2CC2)c1` [Example 124, 3-(N-(2-(5-cyanothiophen-2-yl)-5-(methylsulfonyl)phenyl)sulfamoyl)-4-cyclopropylbenzoic acid]: the IC50 is below 500 nM.

For the compound `COc1ccc(C(=O)O)cc1S(=O)(=O)Nc1cc(C(F)(F)F)ccc1-c1ccc(C#N)s1` [Example 125, 3-(N-(2-(5-cyanothiophen-2-yl)-5-(trifluoromethyl)phenyl)sulfamoyl)-4-methoxybenzoic acid], the half-maximal inhibitory concentration (IC50) is below 500 nM.

Consider `N#Cc1ccc(-c2ccc(C#N)s2)c(NS(=O)(=O)c2cc(C(=O)O)ccc2C2CC2)c1` [Example 126, 3-(N-(5-cyano-2-(5-cyanothiophen-2-yl)phenyl)sulfamoyl)-4-cyclopropylbenzoic acid], for which the IC50 was below 500 nM.

Regarding `N#Cc1ccc(-c2ccc(C(F)(F)F)cc2NS(=O)(=O)c2cc(C(=O)O)ccc2C2CC2)s1` [Example 127, 3-(N-(2-(5-cyanothiophen-2-yl)-5-(trifluoromethyl)phenyl)sulfamoyl)-4-cyclopropylbenzoic acid], the IC50 is below 500 nM.

As for `CCc1ccc(C(=O)O)cc1S(=O)(=O)Nc1cc(C(F)(F)F)ccc1-c1nccs1` [Example 128, 4-ethyl-3-(N-(2-(thiazol-2-yl)-5-(trifluoromethyl)phenyl)sulfamoyl)benzoic acid], the concentration for half-maximal inhibition (IC50) was below 500 nM.

For `CCc1ccc(C(=O)O)cc1S(=O)(=O)Nc1cc(C(F)(F)F)ccc1-c1cncs1` [Example 129, 4-ethyl-3-(N-(2-(thiazol-5-yl)-5-(trifluoromethyl)phenyl)sulfamoyl)benzoic acid], the concentration for half-maximal inhibition (IC50) is below 500 nM.

In the case of `CCc1ccc(C(=O)O)cc1S(=O)(=O)Nc1cc(C(F)(F)F)c(F)cc1-n1cccc1` [Example 130, 4-ethyl-3-(N-(4-fluoro-2-(pyrrol-1-yl)-5-(trifluoromethyl)phenyl)sulfamoyl)benzoic acid], the 50% inhibitory concentration (IC50) was below 500 nM.

As for `CCc1ccc(C(=O)O)cc1S(=O)(=O)Nc1cc(C(F)(F)F)c(Cl)cc1-n1cccc1` [Example 131, 3-(N-(4-chloro-2-(pyrrol-1-yl)-5-(trifluoromethyl)phenyl)sulfamoyl)-4-ethylbenzoic acid], the IC50 is below 500 nM.

The record behind these values is patent publication US12023333B2, “Phenyl-sulfamoyl.benzoyc acids as ERAP1 modulators” (GREY WOLF THERAPEUTICS LIMITED, priority 2019, dated 2024).
